Data from US20190316085A1, “Methods Of T-Lymphocyte Expansion” (Cambridge Enterprise Limited, priority 2015, published 2019).

Columns and labels:
CD8^+ T-lymphocytes [1] = assay: Proliferation after activation (CFSE dilution, viable cell number); assay type: cell-based, mouse; conditions: 0.5 mM; for proliferation following activation: with IL-2
Experimental: Data are representative of 4 mice.
Cells were then treated with 0.5 mM S-2HG-octyl ester, 0.5 mM R-2HG-octyl ester or vehicle and counting was performed at indicated time points after initiation of treatment. n=8 mice per condition.
Cells were counted on an ADAM-MC automated cell counter (NanoEnTek) and viability was assessed by the exclusion of propidium iodide. Cell volume was determined using a Z2 Coulter counter (Beckman Coulter).

CD8^+ T-lymphocytes [2] = assay: qRT-PCR of differentiation, memory and pluripotency associated genes; assay type: cell-based, mouse; conditions: 0.5 mM; for transcript levels of Eomes, acute treatment: 24 h; for expression of pluripotency associated genes (Oct3/4, Sox2, Nanog, Klf4): with IL2; for Il2 and Ifng mRNA expression: 24 h or 7 days; for Eomes expression levels after continuous treatment: 7 days
Experimental: FIGS. 8E, 8F and 8G show expression of II2(8E), Ifng (8F), and Eomes (8G) mRNA in CD8^+ T-lymphocytes activated for 48 h with αCD3+αCD28 antibodies and then expanded for a further 2 days in the presence of IL-2. Cells were then treated for either 24 h or 7 days with or without 0.5 mM S-2HG-octyl ester or R-2HG-octyl ester. n≥4 mice per group.
Activated CD8^+ T-lymphocytes were treated with 0.5 mM of either S-2HG-octyl ester or R-2HG-octyl ester for 1 day or 7 days in the presence of IL2. The induction seen with R-2HG-octyl ester is weaker than with S-2HG-octyl ester. Each dot represents an individual donor mouse, n=4 mice. error bars denote the s.d.
RNA was isolated using the RNeasy kit (Qiagen). 1 μg of RNA was used for cDNA synthesis with the First-Strand Synthesis kit (Invitrogen). All samples were run in technical triplicates using a StepOnePlus system (Applied Biosystems) with SYBR green.

HIF-2a = assay: Immunoblot on nuclear extracts for HIF-2a in treated CD8+ T-lymphocytes; assay type: cell-based, mouse; conditions: 0.5 mM, 1 day or 7 days of treatment
Experimental: The arrow indicates HIF-2a protein.
(§1) Nuclear and cytosolic fractions were prepared from cells with the NE-PER kit (Thermo Scientific) and separated by SDS-PAGE. Proteins were transferred to PVDF membranes and then blocked in 5% milk prepared in phosphate-buffered saline (PBS) plus 0.05% Tween 20. Membranes were then incubated with primary antibodies overnight at 4° C. and horseradish peroxidase (HRP)-conjugated secondary antibodies for 1 h the next day. The following primary antibodies were used at a dilution of 1:1000: HIF1α (Novus), HIF2α (Novus), PDH-E1α (Abcam), PDH-E1α pS232 (Calbiochem), LaminB1 (Abcam), HDAC1 (Abcam), β-tubulin (Abcam), 4E-BP1 (Cell Signalling), phospho-4E-BP1 (S65) (Cell Signalling), phospho-4E-BP1 (T37/T46) (Cell Signalling) S6K (Cell Signalling), phopho-S6K (T389) (Cell Signalling), phopho-S6K (S371) (Cell Signalling).

[3] = tested on: OT-I CD8^+CD45.1^+ T-lymphocytes; assay: In vivo memory recall experiment (adoptive transfer, vaccination); set-up: species or system mouse; conditions: for formation of memory cells after in vitro treatment of CD8+ T-cells: 0.5 mM, 7 days with IL-2 (FIGS. 13, 16, 17); for in vivo recall in response to vaccination: cells pre-treated 7 days with 0.5 mM, 37 days after adoptive transfer
Experimental: FIGS. 13B and 13C show representative flow cytometry plots of (B) CD8^+CD45.1^+ (C) or Kb/SIINFEKL Pentamer^+CD45.1^+ T-lymphocytes, in the spleens of vaccinated litter mate CD45.2 mice, 37 days after adoptive transfer of SIINFEKL-activated OT-I CD8^+CD45.1^+ T-lymphocytes, expanded with 0.5 mM S-2HG-octyl ester, 0.5 mM R-2HG-octyl ester or vehicle in the presence of IL-2 for 7 days. FIGS. 13D-F show (13D) the number of recovered CD45.1^+CD8^+ T-lymphocytes per spleen and (13E) % CD45.1^+ cells of the total CD8^+ population in each spleen or (13F) number of recovered Kb/SIINFEKL Pentamer^+CD45.1^+ T-lymphocytes per spleen 7 days after vaccination (37 days after the CD8+ T-cells were transferred into the mice). n=6 mice per group and error bars denote the s.e.m.
Total splenocytes from OT-1 CD45.1^+ mice were activated with 1000 nM SIINFEKL peptide in the presence of IL-2 and vehicle, 0.5 mM S-2HG-octyl ester or 0.5 mM R-2HG-octyl ester for 7 days. 1 million CD45^+CD8^+ cells were then injected intravenously into C57/B6 wild type CD45.2^+ host mice. 30 days later, host mice were vaccinated i.p. with SIINFEKL-loaded dendritic cells. 7 days later, spleens were harvested from host mice and the presence of CD45.1^+CD8^+ and Kb/SIINFEKL Pentamer+cells was determined by flow cytometry. Absolute numbers of cells were determined with the use of counting beads (CountBright, Life Technologies). Dendritic cells were prepared from bone marrow extracted from wild type C57/B6 mice. Bone marrow derived cells were cultured in non-TC treated petri dishes in RPMI-1640 medium containing 2 mM glutamine, 10% FBS, 25 mM HEPES, pH 7.2, 1% penicillin-streptomycin, 55 μM […] supplemented 20 ng/ml mGM-CSF (R&D Systems). After 8 days of culture, dendritic cells were activated with 1 μg/ml LPS (Sigma) for 24 h. The maturation of dendritic cells was confirmed by flow cytometry using the following markers: MHC class II-APC, CD11b-AF488, CD11c-AF488 and CD86-PE/Cy7 (Biolegend). Mature dendritic cells were then loaded with 2 μM SIINFEKL peptide at 37° C. for 1 hour. After peptide loading, dendritic cells were detached with 3 mM EDTA in PBS for 5-10 min at 37° C. and washed with PBS. For vaccination, 1 million peptide-loaded dendritic cells were injected i.p. per mouse in 100 μl PBS.

mTOR = mTOR signalling immunoblot; assay type: cell-based, mouse; conditions: 100 μM to 500 μM
Experimental: as §1

CD8^+ T-lymphocytes [4] = assay: IFN-γ and IL-2 protein in media; assay type: cell-based, mouse; conditions: 0.5 mM, 24 h
Experimental: Total splenocytes were activated for 48 h with 1000 nM SIINFEKL and then expanded for a further 4 days in the presence of IL-2 followed by treatment 0.5 mM of S-2HG-octyl R-2HG-octyl ester ester for 24 h. OT-I CD8^+ T-lymphocytes were incubated with target and control cells for 4 hours. n=3 mice per condition. […] Cells were activated for 48 h with αCD3+αCD28 antibodies and then expanded for a further 4 days in the presence of IL-2 followed by treatment with the indicated concentration of S-2HG-octyl ester or R-2HG-octyl ester for 24 hours. n≥16 mice.
CD8^+ T-cells were expanded for 4 days and then treated for 16 h with S-2HG octyl ester or R-2HG octyl ester. Glucose and lactate levels in culture medium were measured with a Dade-Behring Dimension RXL analyser. Changes in metabolite concentrations relative to fresh media were normalized to viable cell counts. VEGF, IL-2 and IFN-γ protein levels in media were determined using the following kits from MesoScale Discovery: K150BMC-2 for VEGF, K15048D-2 for IFN-γ and K152QQD-2 for IL-2. Values were normalized to viable cell counts.

Row | Structure (SMILES) | restriction in proliferation compared with S-2HG-octyl ester (CD8^+ T-lymphocytes [1]) | proliferation following activation (CD8^+ T-lymphocytes [1]) | expression of memory associated transcripts (including Ccr7) (CD8^+ T-lymphocytes [2]) | transcript levels of Eomes, acute treatment (CD8^+ T-lymphocytes [2]) | induction of pluripotency associated genes compared with S-2HG-octyl ester (CD8^+ T-lymphocytes [2]; 1 day or 7 days) | expression of pluripotency associated genes (Oct3/4, Sox2, Nanog, Klf4) (CD8^+ T-lymphocytes [2]; 1 day or 7 days) | Il2 and Ifng mRNA expression (CD8^+ T-lymphocytes [2]) | Eomes expression levels after continuous treatment (CD8^+ T-lymphocytes [2]) | abundance of HIF-2a protein (HIF-2a) | formation of memory cells after in vitro treatment of CD8+ T-cells [3] | in vivo recall in response to vaccination [3] | mTOR signalling (mTOR) | production of interleukin-2 (IL-2) (CD8^+ T-lymphocytes [4]) | secretion of interferon-γ (IFN-γ) (CD8^+ T-lymphocytes [4])
1 | CCCCCCCCOC(=O)[C@H](O)CCC(=O)O [R-2HG-octyl ester] | less pronounced | decreasing proliferation | increased | represses | weaker | induces the expression | mediated at the transcriptional level | higher expression levels | increase in the abundance | induces the formation | enhanced in vivo recall | does not inhibit | increased | decreased
2 | CCCCCCCCOC(=O)[C@@H](O)CCC(=O)O [S-2HG-octyl ester, S-2HG octyl ester] |  | decreasing proliferation | increased | represses |  | induces the expression | mediated at the transcriptional level | higher expression levels | increase in the abundance | induces the formation | enhanced in vivo recall | does not inhibit | increased | decreased
